Values of other authors in US20180371542A1, “OPIOID RECEPTOR BLOCKADE IN TREATING ALCOHOL USE DISORDERS” (MUSC Foundation for Research Development, priority 2017, published 2018).

Test system: DSM-IV alcohol dependent individuals
Conditions: all subjects irrespective of genotype; initial report (Schacht et al., 2017)

## O=C1CC[C@@]2(O)[C@H]3Cc4ccc(O)c5c4[C@@]2(CCN3CC2CC2)[C@H]1O5 [naltrexone]
  Main effect of naltrexone over placebo overall: significant main effect of naltrexone over placebo
